# Experimental data from ChEMBL document CHEMBL3885881, “DrugMatrix”.
# Species: Rattus norvegicus
# Test: DrugMatrix - Regimen: Daily Repeat
# Type: toxicity, organism-based, Sprague-Dawley
# Set-up: regimen Daily Repeat, gender Male, age 6-8 weeks
# Conditions: in vivo, po, 1868 mg/kg, route oral GAVAGE, dose level High, vehicle .5 % CMC; for ABSOLUTE BASOPHIL / ABSOLUTE EOSINOPHIL / ABSOLUTE LYMPHOCYTE / ABSOLUTE MONOCYTE / ABSOLUTE SEGMENTED NEUTROPHIL / BASOPHIL / EOSINOPHIL / ERYTHROCYTE COUNT / HEMATOCRIT / HEMOGLOBIN / LEUKOCYTE COUNT / LYMPHOCYTE / MEAN CORPUSCULAR HEMOGLOBIN / MEAN CORPUSCULAR HEMOGLOBIN CONCENTRATION / MEAN CORPUSCULAR VOLUME / MONOCYTE / NEUTROPHIL / NUCLEATED RED BLOOD CELLS / PLATELET COUNT: tissue Blood
# [1] = 72 h, tissue Plasma, time 3 day
# [2] = 120 h, tissue Plasma, time 5 day
structure (smiles),measurement,setting,value
CC(=O)OCc1ccccc1 [E1501],ABSOLUTE BASOPHIL,"72 h, time 3 day",0 CELLS/uL
same,ABSOLUTE EOSINOPHIL,"72 h, time 3 day",53 CELLS/uL
same,ABSOLUTE LYMPHOCYTE,"72 h, time 3 day",16547 CELLS/uL
same,ABSOLUTE MONOCYTE,"72 h, time 3 day",404 CELLS/uL
same,ABSOLUTE SEGMENTED NEUTROPHIL,"72 h, time 3 day",3196 CELLS/uL
same,BASOPHIL,"72 h, time 3 day",0%
same,EOSINOPHIL,"72 h, time 3 day",0.5%
same,ERYTHROCYTE COUNT,"72 h, time 3 day",6.19 x10E6/uL
same,HEMATOCRIT,"72 h, time 3 day",37.45%
same,HEMOGLOBIN,"72 h, time 3 day",13.25 G/DL
same,LEUKOCYTE COUNT,"72 h, time 3 day",20.2 x10E3/uL
same,LYMPHOCYTE,"72 h, time 3 day",75.5%
same,MEAN CORPUSCULAR HEMOGLOBIN,"72 h, time 3 day",21.45 pg
same,MEAN CORPUSCULAR HEMOGLOBIN CONCENTRATION,"72 h, time 3 day",35.4 G/DL
same,MEAN CORPUSCULAR VOLUME,"72 h, time 3 day",60.6 fL
same,MONOCYTE,"72 h, time 3 day",2%
same,NEUTROPHIL,"72 h, time 3 day",22%
same,NUCLEATED RED BLOOD CELLS,"72 h, time 3 day",0 /100WBC
same,PLATELET COUNT,"72 h, time 3 day",1224 x10E3/uL
same,ALANINE AMINOTRANSFERASE,[1],60 u/L
same,ALBUMIN,[1],4.7 G/DL
same,ALKALINE PHOSPHATASE,[1],462 u/L
same,ASPARTATE AMINOTRANSFERASE,[1],177 u/L
same,BLOOD UREA NITROGEN,[1],54 mg/dL
same,CARBON DIOXIDE,[1],24 mmol/L
same,CHLORIDE,[1],92.5 MEQ/L
same,CHOLESTEROL,[1],57 mg/dL
same,CREATININE,[1],0.49 mg/dL
same,GLUCOSE,[1],276 mg/dL
same,LACTATE DEHYDROGENASE,[1],270.5 u/L
same,LIPASE,[1],9.5 u/L
same,PHOSPHORUS,[1],16.1 mg/dL
same,POTASSIUM,[1],5.06 MEQ/L
same,SODIUM,[1],143.6 MEQ/L
same,TOTAL BILIRUBIN,[1],0.25 mg/dL
same,TOTAL PROTEIN,[1],7 G/DL
same,URIC ACID,[1],2 mg/dL
same,ABSOLUTE BASOPHIL,"120 h, time 5 day",0 CELLS/uL
same,ABSOLUTE EOSINOPHIL,"120 h, time 5 day",243.33 CELLS/uL
same,ABSOLUTE LYMPHOCYTE,"120 h, time 5 day",9225.33 CELLS/uL
same,ABSOLUTE MONOCYTE,"120 h, time 5 day",248.33 CELLS/uL
same,ABSOLUTE SEGMENTED NEUTROPHIL,"120 h, time 5 day",783 CELLS/uL
same,BASOPHIL,"120 h, time 5 day",0%
same,EOSINOPHIL,"120 h, time 5 day",2.33%
same,ERYTHROCYTE COUNT,"120 h, time 5 day",6.51 x10E6/uL
same,HEMATOCRIT,"120 h, time 5 day",38.67%
same,HEMOGLOBIN,"120 h, time 5 day",14.03 G/DL
same,LEUKOCYTE COUNT,"120 h, time 5 day",10.5 x10E3/uL
same,LYMPHOCYTE,"120 h, time 5 day",88%
same,MEAN CORPUSCULAR HEMOGLOBIN,"120 h, time 5 day",21.53 pg
same,MEAN CORPUSCULAR HEMOGLOBIN CONCENTRATION,"120 h, time 5 day",36.3 G/DL
same,MEAN CORPUSCULAR VOLUME,"120 h, time 5 day",59.37 fL
same,MONOCYTE,"120 h, time 5 day",2.33%
same,NEUTROPHIL,"120 h, time 5 day",7.33%
same,NUCLEATED RED BLOOD CELLS,"120 h, time 5 day",0 /100WBC
same,PLATELET COUNT,"120 h, time 5 day",934.67 x10E3/uL
same,ALANINE AMINOTRANSFERASE,[2],127 u/L
same,ALBUMIN,[2],4.53 G/DL
same,ALKALINE PHOSPHATASE,[2],336 u/L
same,ASPARTATE AMINOTRANSFERASE,[2],386 u/L
same,BLOOD UREA NITROGEN,[2],22 mg/dL
same,CARBON DIOXIDE,[2],30 mmol/L
same,CHLORIDE,[2],99.67 MEQ/L
same,CHOLESTEROL,[2],65 mg/dL
same,CREATININE,[2],0.28 mg/dL
same,GLUCOSE,[2],167 mg/dL
same,LACTATE DEHYDROGENASE,[2],574 u/L
same,LIPASE,[2],9.67 u/L
same,PHOSPHORUS,[2],13.07 mg/dL
same,POTASSIUM,[2],6.24 MEQ/L
same,SODIUM,[2],148.47 MEQ/L
same,TOTAL BILIRUBIN,[2],0.17 mg/dL
same,URIC ACID,[2],1.83 mg/dL
same,ABSOLUTE BASOPHIL,"[…], time 11 day",0 CELLS/uL
same,ABSOLUTE EOSINOPHIL,"[…], time 11 day",0 CELLS/uL
same,ABSOLUTE LYMPHOCYTE,"[…], time 11 day",4840 CELLS/uL
same,ABSOLUTE MONOCYTE,"[…], time 11 day",440 CELLS/uL
same,ABSOLUTE SEGMENTED NEUTROPHIL,"[…], time 11 day",3520 CELLS/uL
same,BASOPHIL,"[…], time 11 day",0%
same,EOSINOPHIL,"[…], time 11 day",0%
same,ERYTHROCYTE COUNT,"[…], time 11 day",6.27 x10E6/uL
same,HEMATOCRIT,"[…], time 11 day",37.6%
same,HEMOGLOBIN,"[…], time 11 day",13.8 G/DL
same,LEUKOCYTE COUNT,"[…], time 11 day",8.8 x10E3/uL
same,LYMPHOCYTE,"[…], time 11 day",55%
same,MEAN CORPUSCULAR HEMOGLOBIN,"[…], time 11 day",22 pg
same,MEAN CORPUSCULAR HEMOGLOBIN CONCENTRATION,"[…], time 11 day",36.7 G/DL
same,MEAN CORPUSCULAR VOLUME,"[…], time 11 day",60 fL
same,MONOCYTE,"[…], time 11 day",5%
same,NEUTROPHIL,"[…], time 11 day",40%
same,NUCLEATED RED BLOOD CELLS,"[…], time 11 day",0 /100WBC
